Results taken from ChEMBL document CHEMBL1201862, “PubChem BioAssay data set” (2004).
Active and inactive are the calls of the source. Rule as the data show it, for most assays here: actives have a measured EC50 and inactives only a lower limit.

Key:
[1] = target: T1, Rac GTPase-activating protein 1 (Homo sapiens, UniProt Q9H0H5); test: MgcRacGAP GTPase-activating activity inhibitors, confirmation, biochemical, ADP Hunter fluorescence, primary and confirmatory (AID 624330); format: functional
T1 sequence (Q9H0H5 whole entry): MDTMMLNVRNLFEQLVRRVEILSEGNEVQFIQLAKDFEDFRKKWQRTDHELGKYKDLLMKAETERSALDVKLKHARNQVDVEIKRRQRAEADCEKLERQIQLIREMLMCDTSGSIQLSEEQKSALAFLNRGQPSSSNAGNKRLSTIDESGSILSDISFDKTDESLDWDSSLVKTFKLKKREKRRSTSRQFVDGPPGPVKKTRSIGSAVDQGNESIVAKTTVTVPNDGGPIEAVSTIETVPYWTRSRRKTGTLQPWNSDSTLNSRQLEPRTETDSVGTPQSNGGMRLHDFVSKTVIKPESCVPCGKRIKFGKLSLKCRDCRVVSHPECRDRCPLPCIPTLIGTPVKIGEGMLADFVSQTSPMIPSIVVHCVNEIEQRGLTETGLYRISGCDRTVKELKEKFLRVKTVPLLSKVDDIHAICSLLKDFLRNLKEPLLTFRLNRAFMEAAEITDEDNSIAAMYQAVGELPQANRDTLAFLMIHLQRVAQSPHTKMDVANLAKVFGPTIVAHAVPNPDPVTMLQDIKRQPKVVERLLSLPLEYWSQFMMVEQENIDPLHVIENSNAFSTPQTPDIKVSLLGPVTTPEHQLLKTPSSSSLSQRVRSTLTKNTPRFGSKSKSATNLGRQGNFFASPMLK

[2] = target: Cytochrome P450 2D6 (Homo sapiens, UniProt P10635);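 also: CYP2D6 member of a cytochrome P450 panel assay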
Chain of Cytochrome P450 2D6 (P10635 whole entry): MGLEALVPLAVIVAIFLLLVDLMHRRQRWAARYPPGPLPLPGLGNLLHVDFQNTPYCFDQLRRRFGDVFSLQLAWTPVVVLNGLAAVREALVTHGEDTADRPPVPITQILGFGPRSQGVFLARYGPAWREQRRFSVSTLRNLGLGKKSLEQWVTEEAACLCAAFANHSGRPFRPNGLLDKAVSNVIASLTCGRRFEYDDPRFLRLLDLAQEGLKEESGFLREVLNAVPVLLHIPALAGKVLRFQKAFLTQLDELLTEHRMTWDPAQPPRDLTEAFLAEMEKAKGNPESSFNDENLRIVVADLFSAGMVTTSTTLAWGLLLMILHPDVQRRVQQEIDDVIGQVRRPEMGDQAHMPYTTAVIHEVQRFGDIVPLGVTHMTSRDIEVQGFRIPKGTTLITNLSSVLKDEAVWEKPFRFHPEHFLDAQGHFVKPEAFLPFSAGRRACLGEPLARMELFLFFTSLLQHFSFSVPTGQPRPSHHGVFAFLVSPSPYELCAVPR

[3] = target: Cytochrome P450 3A4 (Homo sapiens, UniProt P08684);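 also: CYP3A4 tested as one member of a cytochrome P450 panel screen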
Chain of Cytochrome P450 3A4 (P08684 whole entry): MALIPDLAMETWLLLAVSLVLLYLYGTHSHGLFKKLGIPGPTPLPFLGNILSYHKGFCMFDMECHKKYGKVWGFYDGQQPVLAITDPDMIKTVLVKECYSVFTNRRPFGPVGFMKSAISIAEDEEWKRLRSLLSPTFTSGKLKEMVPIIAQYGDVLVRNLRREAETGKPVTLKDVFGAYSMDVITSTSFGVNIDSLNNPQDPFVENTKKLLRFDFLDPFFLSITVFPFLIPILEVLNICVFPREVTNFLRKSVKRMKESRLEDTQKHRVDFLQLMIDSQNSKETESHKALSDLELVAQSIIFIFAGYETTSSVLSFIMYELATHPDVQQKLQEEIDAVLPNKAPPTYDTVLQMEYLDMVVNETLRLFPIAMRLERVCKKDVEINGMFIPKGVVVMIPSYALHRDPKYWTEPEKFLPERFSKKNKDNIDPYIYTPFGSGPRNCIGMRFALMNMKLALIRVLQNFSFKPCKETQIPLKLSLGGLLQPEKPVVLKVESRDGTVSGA

[4] = target: T2, Cytochrome P450 1A2 (Homo sapiens, UniProt P05177);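 also: PubChem cytochrome P450 panel assay, CYP1A2 panel member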
T2 sequence (P05177 whole entry): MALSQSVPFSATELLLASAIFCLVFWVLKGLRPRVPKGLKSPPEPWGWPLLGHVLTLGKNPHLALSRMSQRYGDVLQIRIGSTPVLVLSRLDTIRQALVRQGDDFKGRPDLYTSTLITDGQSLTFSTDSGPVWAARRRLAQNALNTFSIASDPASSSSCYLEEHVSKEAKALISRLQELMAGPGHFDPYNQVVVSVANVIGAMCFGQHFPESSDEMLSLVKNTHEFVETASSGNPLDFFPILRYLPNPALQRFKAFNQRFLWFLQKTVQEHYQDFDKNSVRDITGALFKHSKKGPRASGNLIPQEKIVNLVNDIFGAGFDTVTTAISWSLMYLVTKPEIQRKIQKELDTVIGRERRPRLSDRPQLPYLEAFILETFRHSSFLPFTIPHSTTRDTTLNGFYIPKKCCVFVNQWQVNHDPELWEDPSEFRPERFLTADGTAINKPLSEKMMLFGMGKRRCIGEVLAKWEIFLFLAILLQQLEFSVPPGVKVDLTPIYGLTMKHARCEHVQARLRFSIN

[5] = Luminescence Cell-Based Dose Response HTS to Identify Activators of Luciferase Translation or Activity in H4 […] Cells. [Related pubchem assays: 1829 (Project Summary), 1814 (Primary HTS)]; format: functional
[6] = Luminescence Cell-Based Dose Confirmation HTS to Identify Activators of 5'UTR Stem-Loop Driven Alpha-Synuclein mRNA Translation in H4 Neuroglioblastoma Cells. [Related pubchem assays: 1829 (Project Summary), 1814 (Primary HTS)]; format: functional
[7] = tested on: H4; test: Luminescence Cell-Based Dose Response HTS to Identify Activators of 5'UTR Stem-Loop Driven Prion Protein mRNA Translation in H4 Neuroglioblastoma Cells. [Related pubchem assays: 1829 (Project Summary), 1814 (Primary HTS)]; format: functional; conditions: Homo sapiens
[8] = NIH-3T3 fibroblast cytotoxicity, dose response, cytotoxicity control, cell-based, fluorescence, Alamar Blue, secondary assay (AID 2327); format: functional;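 also: NIH-3T3 mouse fibroblasts cultured with fluconazole at 8 µg/mL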
[9] = C. albicans growth with fluconazole, confirmation, fluorescence, retest (AID 2467); format: functional, cell-based
[10] = tested on: Streptococcus; test: Group A Streptococcus viability loss, dose response, counter-screen for streptokinase expression inhibitor project, luminescence, BacTiterGlo (AID 1915); format: functional, organism-based;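 also: potency for reduction of bacterial viability or growth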
[11] = tested on: Streptococcus sp. 'group A'; test: growth inhibition of control SK(-) GAS strain, dose response, counter-screen for streptokinase expression inhibitor project, luminescence, kanamycin, BacTiterGlo, confirmation (AID 1900); format: functional, organism-based
[12] = tested on: INS1; test: beta cell apoptosis inhibitors, cytokine rescue, dose response, luminescence, retest (AID 449756); format: functional, cell-based; conditions: Rattus norvegicus;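 also: cell death triggered by IL-1 beta plus TNF-alpha plus IFN-gamma mixture; protective hits raise ATP signal compared with cytokine alone wells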
[13] = target: T3, Streptokinase A (Streptococcus pyogenes serotype M1, UniProt P10520); test: S. pyogenes streptokinase expression inhibitors, potency, dose response, plasminogen activation absorbance, OD405 (AID 1914); format: functional, Streptococcus pyogenes M1 GAS;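 also: secreted streptokinase activity via plasminogen activation per viability signal from cell pellet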
T3 sequence (P10520 whole entry): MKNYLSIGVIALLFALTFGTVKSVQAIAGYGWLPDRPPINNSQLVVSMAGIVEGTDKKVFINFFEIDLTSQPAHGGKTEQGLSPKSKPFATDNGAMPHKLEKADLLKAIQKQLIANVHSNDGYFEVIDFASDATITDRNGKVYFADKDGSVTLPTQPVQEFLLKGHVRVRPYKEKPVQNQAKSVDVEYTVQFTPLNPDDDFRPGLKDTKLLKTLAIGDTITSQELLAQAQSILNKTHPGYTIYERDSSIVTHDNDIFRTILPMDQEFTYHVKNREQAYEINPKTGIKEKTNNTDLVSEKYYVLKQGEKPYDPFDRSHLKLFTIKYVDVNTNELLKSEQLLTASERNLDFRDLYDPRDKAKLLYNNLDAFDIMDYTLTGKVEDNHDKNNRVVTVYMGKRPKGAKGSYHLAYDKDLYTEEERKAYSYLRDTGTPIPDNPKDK

[14] = target: Luciferin 4-monooxygenase (Photinus pyralis, UniProt P08659); test: firefly luciferase enzyme inhibitors, dose response, biochemical, luminescence (AID 1891)
Chain of Luciferin 4-monooxygenase (P08659 whole entry): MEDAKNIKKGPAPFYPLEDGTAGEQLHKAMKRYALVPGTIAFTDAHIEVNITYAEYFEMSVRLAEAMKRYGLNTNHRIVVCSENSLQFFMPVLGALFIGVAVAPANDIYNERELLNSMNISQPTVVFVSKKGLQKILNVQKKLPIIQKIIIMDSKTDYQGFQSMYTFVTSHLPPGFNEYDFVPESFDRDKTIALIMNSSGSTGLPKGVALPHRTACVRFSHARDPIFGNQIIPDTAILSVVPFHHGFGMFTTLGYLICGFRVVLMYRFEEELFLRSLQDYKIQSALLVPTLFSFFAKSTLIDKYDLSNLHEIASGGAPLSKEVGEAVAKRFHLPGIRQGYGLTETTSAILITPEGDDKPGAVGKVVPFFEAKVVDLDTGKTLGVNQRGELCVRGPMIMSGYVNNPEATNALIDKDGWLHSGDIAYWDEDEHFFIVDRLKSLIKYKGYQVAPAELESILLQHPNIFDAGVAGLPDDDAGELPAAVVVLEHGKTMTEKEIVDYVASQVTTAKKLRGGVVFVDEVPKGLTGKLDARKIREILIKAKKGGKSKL

[15] = Luminescence Cell-Based Dose Confirmation HTS to Identify Inhibitors of Platelet Dense Granule Release. [Related pubchem assays: 1663 (Primary HTS), 1678 (Summary of Project)]; format: functional

Question: With `COc1cc2c(CCNC(C)=O)c[nH]c2cc1O` as the molecule, how does the IC50 [1] read?
Answer: 52.3 µM (active)

Question: What about the AC50 [2] of the same molecule?
Answer: 39.8 µM (inconclusive)

Question: And the AC50 [3]?
Answer: 15.8 µM (inconclusive)

Question: And the AC50 [4]?
Answer: 31.6 µM (inconclusive)

Question: With `COC(=O)C1(Cc2cc(-c3ccccc3)no2)CCN(C(=O)OC(C)(C)C)CC1` as the molecule, how does the EC50 [5] read?
Answer: 49.6 µM (active)

Question: And the EC50 [6]?
Answer: 9.17 µM (active)

Question: And the EC50 [7]?
Answer: 55.7 µM (active)

Question: Which EC50 [8] does the source give for `CN1C(=O)/C(=C/c2cn(CC(=O)N3CCCCC3)c3ccccc23)NC1=S` here?
Answer: > 150 µM (inactive)

Question: And the EC50 [9]?
Answer: > 38 µM (not active)

Question: For `FC(F)(F)c1cccc(-c2nc3nc(Cl)c(Cl)nc3[nH]2)c1`, which EC50 [10] is on record?
Answer: 94.8 µM (active)

Question: And the EC50 [11]?
Answer: 7.96 µM (active)

Question: What about the AC50 [12] of the same molecule?
Answer: 3.23 µM (active)

Question: And the AC50 [3]?
Answer: 5.01 µM (inconclusive)

Question: What about the EC50 [13] of the same molecule?
Answer: > 150 µM (not active)

Question: What does the source list for `C=CCNc1ncnc2c1[nH]c1ccc(Cl)cc12`?
Answer: EC50 [5]: 43 µM (active); EC50 [6]: 89.5 µM (active)

Question: With `CCOc1cccc(-c2cc(-c3nnc(S)n3CC)c3ccccc3n2)c1` as the molecule, how does the EC50 [8] read?
Answer: > 160 µM (inactive)

Question: And the EC50 [9]?
Answer: 4.13 µM (active)

Question: With `COCC1CCN(C(=O)CCc2nnc(C3(c4ccc(Cl)cc4)CCC3)o2)C1` (stereo not given) as the molecule, how does the EC50 [10] read?
Answer: > 150 µM (not active)

Question: And the EC50 [11]?
Answer: > 150 µM (not active)

Question: What about the EC50 [13] of the same molecule?
Answer: > 150 µM (not active)

Question: Which EC50 [14] does the source give for `CC1=NN(C(C#N)c2cccc([N+](=O)[O-])c2)C(C)(C)C1` (stereo not given) here?
Answer: > 112 µM (not active)

Question: And the EC50 [15]?
Answer: > 112 µM (not active)

Question: For `CCc1nnc(NC(=O)CSc2nc3c(cc2C#N)CCC3)s1`, which EC50 [5] is on record?
Answer: 0.131 µM (active)

Question: And the EC50 [7]?
Answer: > 120 µM (not active)

Question: For `CC(=O)N1CCC(=NNc2nc3ccccc3s2)CC1`, which EC50 [8] is on record?
Answer: > 160 µM (inactive)

Question: And the EC50 [9]?
Answer: > 38 µM (not active)

Question: With `O=C(CNC(=O)c1cn2ccccc2n1)Nc1ccc(F)c(F)c1` as the molecule, how does the EC50 [5] read?
Answer: 45.5 µM (active)

Question: What about the EC50 [6] of the same molecule?
Answer: 0.453 µM (active)

Question: What about the EC50 [7] of the same molecule?
Answer: > 120 µM (not active)

Question: For `O=C(Nc1ccc2c(c1)OCCO2)NC12CC3CC(CC(C3)C1)C2`, which EC50 [5] is on record?
Answer: 0.516 µM (active)

Question: What about the EC50 [6] of the same molecule?
Answer: 5.22 µM (active)

Question: What about the EC50 [7] of the same molecule?
Answer: > 120 µM (not active)

Question: Which IC50 [1] does the source give for `COc1cc(/C=C/C(=O)OCC(=O)NC(=O)NC(C)(C)C)ccc1O` here?
Answer: 57.5 µM (active)

Question: Which EC50 [8] does the source give for `COC(=O)c1c(-c2cccs2)csc1NC(=O)c1cccnc1` here?
Answer: > 160 µM (inactive)

Question: What about the EC50 [9] of the same molecule?
Answer: 2.49 µM (active)

Question: Which results are given for `O=C(NCc1ccc2c(c1)OCO2)Nc1ccc(F)cc1`?
Answer: EC50 [10]: > 150 µM (not active); EC50 [11]: > 150 µM (not active); EC50 [13]: > 150 µM (not active)

Question: With `COc1cc(OC)c([C@H]2C=C(C)[C@H]3C[C@@H]2C3(C)C)c(OC)c1` as the molecule, how does the EC50 [10] read?
Answer: 9.95 µM (active)

Question: And the EC50 [11]?
Answer: 4.7 µM (active)

Question: What about the EC50 [13] of the same molecule?
Answer: 63.3 µM (active)

Question: Which EC50 [5] does the source give for `Cc1ccc(C(=O)Cn2ncsc2=N)cc1` here?
Answer: 16.8 µM (active)

Question: And the EC50 [6]?
Answer: 13.5 µM (active)

Question: Which EC50 [5] does the source give for `Cc1ccc(C2NNC(=O)C2NC(=O)c2ccccc2)cc1` (stereo not given) here?
Answer: 9.08 µM (active)

Question: What about the EC50 [6] of the same molecule?
Answer: 11.3 µM (active)

Question: And the EC50 [7]?
Answer: 48.6 µM (active)

Question: For `N#Cc1c(Cl)nsc1NC(=O)c1ccccc1`, which EC50 [8] is on record?
Answer: 22.2 µM (active)

Question: And the EC50 [9]?
Answer: 0.626 µM (active)

Question: What about the AC50 [12] of the same molecule?
Answer: 3.29 µM (active)
